Assay results from patent publication US20230013823A1, “INHIBITORS OF HUMAN IMMUNODEFICIENCY VIRUS REPLICATION” (VIV HEALTHCARE UK (No. 5) LIMITED, priority 2019, published 2023).

Legend:
[1] = system: recombinant NL4-3 virus (Renilla luciferase in nef); assay: HIV cell culture assay (antiviral activity, luciferase readout in MT-2 cells); format: cell-based; conditions: Renilla, NL43
Method in brief: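 MT-2 cells were infected for 4-5 days with 293T-derived recombinant NL4-3 reporter virus in the presence of serially diluted compound. Antiviral activity was quantified as luciferase activity using a live-cell substrate. EC50 was derived from the median effect equation.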

[2] = Compound cytotoxicity, XTT-based colorimetric assay; format: cell-based; conditions: human; uninfected MT2 cells, day 4, XTT
Description: Compound cytotoxicity and the corresponding CC50 values were determined using the same protocol as described in the antiviral assay except that uninfected cells were used. Cytotoxicity was assessed on day 4 in uninfected MT2 cells by using an XTT (2,3-bis[2-Methoxy-4-nitro-5-sulfophenyl]-2H-tetrazolium-5-carboxyanilide inner salt)-based colorimetric assay (Sigma-Aldrich, St Louis, Mo.).

| SMILES | EC50 [1] [nM] | CC50 at 4 days [2] [nM] |
| --- | --- | --- |
| Cn1nc(NS(C)(=O)=O)c2c(Cl)ccc(-n3c([C@H](Cc4cc(F)cc(F)c4)NC(=O)Cn4nc(C(F)F)c5c4C(F)(F)[C@@H]4C[C@H]54)nc4cc(-c5ncc(F)cc5F)ccc4c3=O)c21 (atropisomer, axis not shown; (P)) [Example 7, N—((S)-1-((3P)-3-(4-chloro-1-methyl-3-(methylsulfonamido)-1H-indazol-7-yl)-7-(3,5-difluoropyridin-2-yl)-4-oxo-3,4-dihydroquinazolin-2-yl)-2-(3,5-difluorophenyl)ethyl)-2-((3bS,4aR)-3-(difluoromethyl)-5,5-difluoro-3b,4,4a,5-tetrahydro-1H-cyclopropa[3,4]cyclopenta[1,2-c]pyrazol-1-yl)acetamide] | 0.17 | > 500 |
| Cn1nc(NS(C)(=O)=O)c2c(Cl)ccc(-n3c([C@H](Cc4cc(F)cc(F)c4)NC(=O)Cn4nc(C(F)F)c5c4C(F)(F)[C@@H]4C[C@H]54)nc4cc(-c5cc(C(F)(F)F)ncn5)ccc4c3=O)c21 (atropisomer, axis not shown; (P)) [Example 25, N—((S)-1-((3P)-3-(4-chloro-1-methyl-3-(methylsulfonamido)-1H-indazol-7-yl)-4-oxo-7-(6-(trifluoromethyl)pyrimidin-4-yl)-3,4-dihydroquinazolin-2-yl)-2-(3,5-difluorophenyl)ethyl)-2-((3bS,4aR)-3-(difluoromethyl)-5,5-difluoro-3b,4,4a,5-tetrahydro-1H-cyclopropa[3,4]cyclopenta[1,2-c]pyrazol-1-yl)acetamide] | 0.083 | > 100 |
| Cn1nc(NS(C)(=O)=O)c2c(Cl)ccc(-n3c([C@H](Cc4cc(F)cc(F)c4)NC(=O)Cn4nc(C(F)F)c5c4C(F)(F)[C@H]4C[C@@H]54)nc4cc(-c5ccn(CC6CC6)n5)ccc4c3=O)c21 (atropisomer, axis not shown; (P)) [Example 31, N—((S)-1-((3P)-3-(4-chloro-1-methyl-3-(methylsulfonamido)-1H-indazol-7-yl)-7-(1-(cyclopropylmethyl)-1H-pyrazol-3-yl)-4-oxo-3,4-dihydroquinazolin-2-yl)-2-(3,5-difluorophenyl)ethyl)-2-((3bS,4aR)-3-(difluoromethyl)-5,5-difluoro-3b,4,4a,5-tetrahydro-1H-cyclopropa[3,4]cyclopenta[1,2-c]pyrazol-1-yl)acetamide] | 0.11 | > 500 |
| Cc1nc2cc(-c3ccc4c(=O)n(-c5ccc(Cl)c6c(NS(C)(=O)=O)nn(C)c56)c([C@H](Cc5cc(F)cc(F)c5)NC(=O)Cn5nc(C(F)F)c6c5C(F)(F)[C@@H]5C[C@H]65)nc4c3)ccc2s1 (atropisomer, axis not shown; (P)) [Example 36, N—((S)-1-((3P)-3-(4-chloro-1-methyl-3-(methylsulfonamido)-1H-indazol-7-yl)-7-(2-methylbenzo[d]thiazol-5-yl)-4-oxo-3,4-dihydroquinazolin-2-yl)-2-(3,5-difluorophenyl)ethyl)-2-((3bS,4aR)-3-(difluoromethyl)-5,5-difluoro-3b,4,4a,5-tetrahydro-1H-cyclopropa[3,4]cyclopenta[1,2-c]pyrazol-1-yl)acetamide] | 1.8 | > 100 |
| Cn1nc(NS(C)(=O)=O)c2c(Cl)ccc(-n3c([C@H](Cc4cc(F)cc(F)c4)NC(=O)Cn4nc(C(F)F)c5c4C(F)(F)[C@@H]4C[C@H]54)nc4cc(-c5ccn(CCCF)n5)ccc4c3=O)c21 (atropisomer, axis not shown; (P)) [Example 51, N—((S)-1-((3P)-3-(4-chloro-1-methyl-3-(methylsulfonamido)-1H-indazol-7-yl)-7-(1-(3-fluoropropyl)-1H-pyrazol-3-yl)-4-oxo-3,4-dihydroquinazolin-2-yl)-2-(3,5-difluorophenyl)ethyl)-2-((3bS,4aR)-3-(difluoromethyl)-5,5-difluoro-3b,4,4a,5-tetrahydro-1H-cyclopropa[3,4]cyclopenta[1,2-c]pyrazol-1-yl)acetamide] | 0.042 | > 100 |
| Cn1nc(NS(C)(=O)=O)c2c(Cl)ccc(-n3c([C@H](Cc4cc(F)cc(F)c4)NC(=O)Cn4nc(C(F)F)c5c4C(F)(F)[C@@H]4C[C@H]54)nc4cc(-c5ccn(CCOC(F)(F)F)n5)ccc4c3=O)c21 (atropisomer, axis not shown; (P)) [Example 54, N—((S)-1-((3P)-3-(4-chloro-1-methyl-3-(methylsulfonamido)-1H-indazol-7-yl)-4-oxo-7-(1-(2-(trifluoromethoxy)ethyl)-1H-pyrazol-3-yl)-3,4-dihydroquinazolin-2-yl)-2-(3,5-difluorophenyl)ethyl)-2-((3bS,4aR)-3-(difluoromethyl)-5,5-difluoro-3b,4,4a,5-tetrahydro-1H-cyclopropa[3,4]cyclopenta[1,2-c]pyrazol-1-yl)acetamide] | 0.098 | > 100 |
| Cn1nc(NS(C)(=O)=O)c2c(Cl)ccc(-n3c([C@H](Cc4cc(F)cc(F)c4)NC(=O)Cn4nc(C(F)F)c5c4C(F)(F)[C@@H]4C[C@H]54)nc4cc(-c5cccc(C(F)F)c5F)ccc4c3=O)c21 (atropisomer, axis not shown; (P)) [Example 18, N—((S)-1-((3P)-3-(4-chloro-1-methyl-3-(methylsulfonamido)-1H-indazol-7-yl)-7-(3-(difluoromethyl)-2-fluorophenyl)-4-oxo-3,4-dihydroquinazolin-2-yl)-2-(3,5-difluorophenyl)ethyl)-2-((3bS,4aR)-3-(difluoromethyl)-5,5-difluoro-3b,4,4a,5-tetrahydro-1H-cyclopropa[3,4]cyclopenta[1,2-c]pyrazol-1-yl)acetamide] | 0.54 | > 500 |
| Cn1nc(NS(C)(=O)=O)c2c(Cl)ccc(-n3c([C@H](Cc4cc(F)cc(F)c4)NC(=O)Cn4nc(C(F)F)c5c4C(F)(F)[C@@H]4C[C@H]54)nc4cc(-c5cnn(CCF)c5)ccc4c3=O)c21 (atropisomer, axis not shown; (P)) [Example 42, N—((S)-1-((3P)-3-(4-chloro-1-methyl-3-(methylsulfonamido)-1H-indazol-7-yl)-7-(1-(2-fluoroethyl)-1H-pyrazol-4-yl)-4-oxo-3,4-dihydroquinazolin-2-yl)-2-(3,5-difluorophenyl)ethyl)-2-((3bS,4aR)-3-(difluoromethyl)-5,5-difluoro-3b,4,4a,5-tetrahydro-1H-cyclopropa[3,4]cyclopenta[1,2-c]pyrazol-1-yl)acetamide] | 0.068 | > 100 |
| CC(F)(F)Cn1ccc(-c2ccc3c(=O)n(-c4ccc(Cl)c5c(NS(=O)(=O)C6CC6)nn(CC(F)F)c45)c([C@H](Cc4cc(F)cc(F)c4)NC(=O)Cn4nc(C(F)F)c5c4C(F)(F)[C@@H]4C[C@H]54)nc3c2)n1 (atropisomer, axis not shown; (P)) [Example 69, N—((S)-1-((3P)-3-(4-chloro-3-(cyclopropanesulfonamido)-1-(2,2-difluoroethyl)-1H-indazol-7-yl)-7-(1-(2,2-difluoropropyl)-1H-pyrazol-3-yl)-4-oxo-3,4-dihydroquinazolin-2-yl)-2-(3,5-difluorophenyl)ethyl)-2-((3bS,4aR)-3-(difluoromethyl)-5,5-difluoro-3b,4,4a,5-tetrahydro-1H-cyclopropa[3,4]cyclopenta[1,2-c]pyrazol-1-yl)acetamide] | 0.16 | > 100 |
| Cn1nc(NS(C)(=O)=O)c2c(Cl)ccc(-n3c([C@H](Cc4cc(F)cc(F)c4)NC(=O)Cn4nc(C(F)F)c5c4C(F)(F)[C@@H]4C[C@H]54)nc4cc(-c5ccnc(C#N)n5)ccc4c3=O)c21 (atropisomer, axis not shown; (P)) [Example 11, N—((S)-1-((3P)-3-(4-chloro-1-methyl-3-(methylsulfonamido)-1H-indazol-7-yl)-7-(2-cyanopyrimidin-4-yl)-4-oxo-3,4-dihydroquinazolin-2-yl)-2-(3,5-difluorophenyl)ethyl)-2-((3bS,4aR)-3-(difluoromethyl)-5,5-difluoro-3b,4,4a,5-tetrahydro-1H-cyclopropa[3,4]cyclopenta[1,2-c]pyrazol-1-yl)acetamide] | 0.089 | > 500 |
| Cn1nc(NS(C)(=O)=O)c2c(Cl)ccc(-n3c([C@H](Cc4cc(F)cc(F)c4)NC(=O)Cn4nc(C(F)F)c5c4C(F)(F)[C@@H]4C[C@H]54)nc4cc(-c5ccn(CCCC(F)(F)F)n5)ccc4c3=O)c21 (atropisomer, axis not shown; (P)) [Example 53, N—((S)-1-((3P)-3-(4-chloro-1-methyl-3-(methylsulfonamido)-1H-indazol-7-yl)-4-oxo-7-(1-(4,4,4-trifluorobutyl)-1H-pyrazol-3-yl)-3,4-dihydroquinazolin-2-yl)-2-(3,5-difluorophenyl)ethyl)-2-((3bS,4aR)-3-(difluoromethyl)-5,5-difluoro-3b,4,4a,5-tetrahydro-1H-cyclopropa[3,4]cyclopenta[1,2-c]pyrazol-1-yl)acetamide] | 0.1 | > 100 |
| Cn1nc(NS(C)(=O)=O)c2c(Cl)ccc(-n3c([C@H](Cc4cc(F)cc(F)c4)NC(=O)Cn4nc(C(F)F)c5c4C(F)(F)[C@@H]4C[C@H]54)nc4cc(-c5csc(C(F)(F)F)n5)ccc4c3=O)c21 (atropisomer, axis not shown; (P)) [Example 1, N—((S)-1-((3P)-3-(4-chloro-1-methyl-3-(methylsulfonamido)-1H-indazol-7-yl)-4-oxo-7-(2-(trifluoromethyl)thiazol-4-yl)-3,4-dihydroquinazolin-2-yl)-2-(3,5-difluorophenyl)ethyl)-2-((3bS,4aR)-3-(difluoromethyl)-5,5-difluoro-3b,4,4a,5-tetrahydro-1H-cyclopropa[3,4]cyclopenta[1,2-c]pyrazol-1-yl)acetamide] | 0.091 | > 100 |
